From patent publication US9969677B2, “Histone acetyltransferase modulators and uses thereof” (THE TRUSTEES OF COLUMBIA UNIVERSITY IN THE CITY OF NEW YORK, priority 2010, dated 2018)

Columns and labels:
p300 = biological target: T1, p300 (Homo sapiens, UniProt Q09472); assay: acetyltransferase activity assay (Enzo Life Sciences), P300; format: biochemical; conditions: for EC50: Table 1, activation of P300 according to b440
T1 construct: the catalytic domain of human CBP, PCAF, p300 and GCN5 (Enzo Life Sci., USA) can be used; purchased Enzo Life Sciences
T1 sequence (Q09472 1287-1663 limits assumed): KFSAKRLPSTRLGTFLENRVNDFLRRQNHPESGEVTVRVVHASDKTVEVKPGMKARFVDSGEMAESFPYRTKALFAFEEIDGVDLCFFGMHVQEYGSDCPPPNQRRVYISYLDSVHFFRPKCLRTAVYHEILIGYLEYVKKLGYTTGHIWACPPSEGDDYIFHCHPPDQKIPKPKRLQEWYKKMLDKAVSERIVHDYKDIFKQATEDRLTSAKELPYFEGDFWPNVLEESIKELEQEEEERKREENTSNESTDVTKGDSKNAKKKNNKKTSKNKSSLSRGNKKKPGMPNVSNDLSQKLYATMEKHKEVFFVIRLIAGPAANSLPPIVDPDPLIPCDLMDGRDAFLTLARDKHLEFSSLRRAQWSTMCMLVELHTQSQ
Experimental: (§1) Commercial human HATs (CBP, p300, GCN5, PCAF (Enzo Life Sciences), and Tip60 (SignalChem)) were assayed in an acetyltransferase activity assay (Enzo Life Sciences, Cat. No. ADI-907-026). Each well contained, in addition to a HAT, histone 3 as the acetyl acceptor, acetyl-CoA as the acetyl donor in the reaction mixture and compounds (1% DMSO) at the appropriate concentrations. The reaction was carried out at room temperature. Enzyme activity was measured by monitoring the breakage of the substrate acetyl-CoA by HAT using a proprietary detection mixture. The fluorescent signal was measured using a Tecan microplate reader (excitation: 380 nm, emission: 520 nm). The assay methodology was adopted as it provided a 10-fold higher signal/background ratio and was more sensitive than other assays. […] Compound 10 had no effect with either P300 or CBP (FIG. 13).

CBP = biological target: T2, CBP (Homo sapiens, UniProt Q92793); assay: acetyltransferase activity assay (Enzo Life Sciences), CBP; format: biochemical
T2 construct: the catalytic domain of human CBP, PCAF, p300 and GCN5 (Enzo Life Sci., USA) can be used; purchased Enzo Life Sciences
Experimental: as §1

[1] = tested on: PC12 cells, sympathetic neurons and hippocampal neurons; conditions: cited from earlier work
[2] = in vivo; cited from earlier work
APP/PS1 mouse [3] = conditions: APP/PS1 double transgenic mouse; cited from earlier work
APP/PS1 mouse [4] = conditions: APP/PS1 double transgenic mouse; cited from earlier work; remark: listed apart in the source
[5] = cited from earlier work
[6] = cited from earlier work; remark: listed apart in the source
[7] = tested on: Aβ-induced reduction of LTP; assay: rescue of Aβ-induced reduction of LTP
From the text: Synaptic dysfunction is a major hallmark of AD (Histol Histopathol, 1995. 10(2): p. 509-19; herein incorporated by reference in its entirety). An aspect of the drug screening protocol can include a measurement of the effect of compounds onto synaptic function. The APP/PS1 mouse presents an impairment of LTP by the age of 3 months (Ann Neurol, 2004. 55(6): p. 801-14; herein incorporated by reference in its entirety), and therefore permits a relatively fast assessment of synaptic function without waiting a long time for mice aging. LTP can be examined because it is a type of synaptic plasticity thought to underlie learning and memory. D rescues the Aβ-induced reduction of LTP, and other compounds can also be screened to identify those that can re-establish normal LTP. The compounds can be applied for 30 min. Controls can be performed on slices from APP/PS1 mice treated with vehicle, and WT mice treated with compound or vehicle. If the compounds re-establish normal LTP in APP/PS1 slices, one can conclude that the compounds rescue impairment of synaptic plasticity in APP/PS1 mice. Cognitive impairment can also be investigated (see Example 5).

histone acetylation = conditions: cited from earlier work
Tip60 = biological target: T3, Tip60 (Homo sapiens, UniProt Q92993); assay: acetyltransferase activity assay (Enzo Life Sciences), Tip60; format: biochemical; conditions: histone 3 acetyl acceptor, acetyl-CoA, room temperature
T3 construct: purchased SignalChem
Experimental: as §1

[8] = cited from earlier work; remark: listed apart in the source
[9] = in vivo; cited from earlier work; remark: listed apart in the source

T2 sequence (Q92793 1323-1700 limits assumed): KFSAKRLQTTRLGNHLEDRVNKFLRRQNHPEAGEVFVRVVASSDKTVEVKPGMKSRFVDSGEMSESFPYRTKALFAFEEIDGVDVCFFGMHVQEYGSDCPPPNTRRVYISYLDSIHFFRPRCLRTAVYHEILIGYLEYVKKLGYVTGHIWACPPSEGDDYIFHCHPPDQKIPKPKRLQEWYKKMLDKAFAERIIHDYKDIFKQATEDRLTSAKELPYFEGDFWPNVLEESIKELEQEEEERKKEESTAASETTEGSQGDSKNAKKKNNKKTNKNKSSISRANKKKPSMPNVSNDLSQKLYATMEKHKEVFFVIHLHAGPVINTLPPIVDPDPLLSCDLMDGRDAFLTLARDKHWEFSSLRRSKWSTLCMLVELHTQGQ
T3 sequence (Q92993 whole entry): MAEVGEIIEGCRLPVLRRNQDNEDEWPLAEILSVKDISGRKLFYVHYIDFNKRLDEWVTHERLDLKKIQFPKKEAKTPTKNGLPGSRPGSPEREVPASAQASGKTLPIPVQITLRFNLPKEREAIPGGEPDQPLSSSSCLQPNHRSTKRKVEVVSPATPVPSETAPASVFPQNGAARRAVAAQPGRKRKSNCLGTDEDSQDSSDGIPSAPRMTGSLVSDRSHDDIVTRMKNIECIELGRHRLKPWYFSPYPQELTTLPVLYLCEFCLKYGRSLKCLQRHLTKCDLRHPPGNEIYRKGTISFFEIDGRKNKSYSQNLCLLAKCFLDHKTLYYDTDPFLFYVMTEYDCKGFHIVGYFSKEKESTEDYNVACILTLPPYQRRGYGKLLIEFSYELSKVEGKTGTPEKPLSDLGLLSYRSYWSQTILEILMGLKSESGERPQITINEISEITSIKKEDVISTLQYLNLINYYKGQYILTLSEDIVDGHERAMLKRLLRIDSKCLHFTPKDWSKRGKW

With `CCOc1ccc(OCCN(C)C)c(C(=O)Nc2ccc(Cl)c(C(F)(F)F)c2)c1` [Compound 18, N-(4-chloro-3-(trifluoromethyl)phenyl)-2-(2-(dimethylamino)ethoxy)-5-ethoxybenzamide] the EC50 (p300) was 2.3 nM and the “effect on CBP, initial screening (FIG. 13)” value (“effect on CBP” for short) (CBP) was “activated only CBP”.

For `CCOc1cccc(OCCN2CCN(C)CC2)c1C(=O)Nc1ccc(Cl)c(C(F)(F)F)c1` [Compound 11, N-[4-chloro-3-(trifluoromethyl)phenyl]-2-ethoxy-6-[2-(4-methylpiperazin-1-yl)ethoxy]benzamide], the EC50 (p300) was 2.28 nM, the “effect on P300, initial screening (FIG. 13)” value (p300) was “inhibited” and the “effect on CBP” value (CBP) was “no effect”.

With `CCOc1cccc(OCCN(CC)CC)c1C(=O)Nc1ccc(Cl)c(C(F)(F)F)c1` [Compound 12, N-(4-chloro-3-(trifluoromethyl)phenyl)-2-(2-(diethylamino)ethoxy)-6-ethoxybenzamide] the EC50 (p300) was 1.47 nM.

Compound `CCOc1cccc(OCCN2CCOCC2)c1C(=O)Nc1ccc(Cl)c(C(F)(F)F)c1` [Compound 9, N-[4-chloro-3-(trifluoromethyl)phenyl]-2-ethoxy-6-(2-morpholinoethoxy) benzamide] has an EC50 (p300) of 2.07 nM.

In the case of `CC(C)(SN=O)[C@H](N)C(=O)O` [S-nitroso penicillamine], the “protection against Aβ-induced neurotoxicity” value [1] is given as “exerts a neuroprotective effect”.

For `CCOc1cccc(O)c1CNc1ccc(Cl)c(C(F)(F)F)c1` [Compound 26, 2-[((4-chloro-3-(trifluoromethyl)phenyl)amino)methyl]-3-ethoxyphenol], the “effect on CBP” value (CBP) was “activated only CBP”.

In the case of `Cc1cc(-c2ccccc2)nnc1NCCN1CCOCC1` [minaprine], the brain/blood ratio [2] is given as > 2.

For `CC(/C=C/C(=O)NO)=C\[C@@H](C)C(=O)c1ccc(N(C)C)cc1` [TSA], the “contextual fear conditioning (FC) / contextual learning” value (APP/PS1 mouse [3]) is listed as “ameliorates” and the LTP (APP/PS1 mouse [4]) is listed as “ameliorates”.

Compound `CCOc1ccc(C(=O)Nc2ccc(Cl)c(C(F)(F)F)c2)c(OCCN(C)C)c1` [Compound 19, N-(4-chloro-3-(trifluoromethyl)phenyl)-2-(2-(dimethylamino)ethoxy)-4-ethoxybenzamide] has an EC50 (p300) of 1.85 nM.

In the case of `COc1ccc(C2CNC(=O)C2)cc1OC1CCCC1` (stereo not shown) [rolipram], the “contextual fear conditioning (FC) / contextual learning” value (APP/PS1 mouse [3]) is listed as “ameliorates deficits” and the LTP (APP/PS1 mouse [4]) is listed as “ameliorates deficits”.

For `CCCCCCCCCCCCCCCc1cccc(OCC)c1C(=O)Nc1ccc(Cl)c(C(F)(F)F)c1` [CTPB], the membrane permeability [5] is listed as “membrane-impermeable” and the solubility [6] is listed as “insoluble”.

For `CCOc1cccc(OCCN2CCNCC2)c1C(=O)Nc1ccc(Cl)c(C(F)(F)F)c1` [Compound 10, N-[4-chloro-3-(trifluoromethyl)phenyl]-2-ethoxy-6-[2-(piperazin-1-yl)ethoxy]benzamide], the EC50 (p300) was 2.1 nM, the “effect on P300, initial screening (FIG. 13)” value (p300) was “no effect” and the “effect on CBP” value (CBP) was “no effect”.

For `CCOc1cccc(OCCN(C)C)c1/C=N/c1ccc(Cl)c(C(F)(F)F)c1` [Compound 17, 4-chloro-N-[2-(2-(dimethylamino)ethoxy)-6-ethoxybenzylidene]-3-(trifluoromethyl)aniline], the “effect on CBP” value (CBP) was “activated only CBP”.

For `CCOc1ccccc1C(=O)Nc1ccc(Cl)c(C(F)(F)F)c1` [CTB], the membrane permeability [5] is listed as “membrane-impermeable” and the solubility [6] is listed as “insoluble”.

In the case of `CCOc1cccc(OCCN(C)C)c1C(=O)Nc1ccc(Cl)c(C(F)(F)F)c1` [Compound D, N-[4-chloro-3-(trifluoromethyl)phenyl]-2-[2-(dimethyl-amino)ethoxy]-6-ethoxybenzamide], the “Aβ-induced reduction of LTP” value [7] is reported as “rescues”, the EC50 (p300) is reported as 3.81 nM and the EC50 (CBP; histone 3 acetyl acceptor, acetyl-CoA, room temperature) is reported as 4.5 nM. The histone acetylation (histone acetylation) was “increases histone acetylation”, the EC50 (Tip60) was > 200000 nM and the membrane permeability [5] was “membrane permeable”. The BBB permeability [8] was “BBB permeant”, the solubility [6] was “soluble” and the “safety in acute toxicity tests” value [9] was “safe”.

With `CCOc1cccc(O)c1C(=O)Nc1ccc(Cl)c(C(F)(F)F)c1` [Compound 25, N-[4-chloro-3-(trifluoromethyl)phenyl]-2-ethoxy-6-hydroxybenzamide] the “effect on CBP” value (CBP) was “activated only CBP”.

Work on `CCOc1cccc(OCCN2CCCCC2)c1C(=O)Nc1ccc(Cl)c(C(F)(F)F)c1` [Compound 8, N-[4-chloro-3-(trifluoromethyl)phenyl]-2-ethoxy-6-[2-(piperidin-1-yl)ethoxy] benzamide] yielded an EC50 (p300) of 2.75 nM.

In the case of `CCOc1cccc(OCCN(C)C)c1C(=O)NCc1ccc(Cl)c(C(F)(F)F)c1` [Compound 16, N-[4-chloro-3-(trifluoromethyl)benzyl]-2-(2-(dimethylamino)ethoxy)-6-ethoxybenzamide], the EC50 (p300) is reported as 1.84 nM and the “effect on CBP” value (CBP) is reported as “activated only CBP”.

In the case of `CCOc1cccc(OCCCN(C)C)c1C(=O)Nc1ccc(Cl)c(C(F)(F)F)c1` [Compound 13, N-[4-chloro-3-(trifluoromethyl)phenyl]-2-[3-(dimethylamino)propoxy]-6-ethoxybenzamide], the EC50 (p300) is reported as 1.32 nM.
